Like-named read-outs stand apart in the source and are kept apart here.
Tests used:
Protein Kinase C ("PKC") = experiment: Protein Kinase C (PKC) in vitro inhibition (histone III-S phosphorylation); format: biochemical; conditions: partially purified rat brain PKC, 5 μM ATP, 23° C., 15 minutes
Method: A. Protein Kinase C ("PKC") Protocol
Protein Kinase C (PKC) was partially purified from rat brain by chromatography on DEAE-Sephacel according to Shearman et al, Methods in Enzymology […] (1989) and Bishop et al, Biochemical Pharmacology 40:2129-2135 (1990)which are hereby incorporated by reference. PKC was assayed in a reaction mixture (0.25 mL total volume) containing: 20 mM Tris-HCl (pH 7.5); 200 μg/mL histone III-S 10 mM MgCl2; 5 μM [γ-^32 ] ATP (4×10^6 cpm/nmol); 200 μM CaCl2; 32 μg/mL phosphatidylserine; 1.6 μg/mL 1-oleoyl-2-acetyl glycerol and various concentrations of compounds of formula I of the invention were added from stock solutions in dimethylsulfoxide (DMSO). The final concentration of DMSO in the reaction was 2%. Reactions were started by addition of approximately 7 μg of partially purified PKC and allowed to proceed at 23° C. for 15 minutes. Reactions were terminated by addition of 1 mL of ice-cold 15% trichloracetic acid and 1 mL of cold 0.5 mg/mL bovine serum albumin to precipitate the histone III-S substrate. After 10 minutes on ice, precipitated phosphoproteins were collected on Whatman GF/C filters using a Brandel cell harvester. Filters were placed in scintillation vials with 5 mL of Ready Safe scintillation cocktail and radioactivity trapped on the filter was quantitated by liquid scintillation counting. Percent inhibition of PKC activity was calculated relative to the activity observed in the DMSO controls.

[1] = tested on: HT1080 human fibrosarcoma cells; experiment: Tumor Cell Invasion Assay (Matrigel); format: cell-based; conditions: HT-1080, @ 45 μg/mL, 5 hours at 37° C.
Method: Tumor Cell Invasion Assay
The cell invasion assay quantitates the ability of malignant cells to invade a reconstituted basement membrane matrix. The assay is performed essentially as described in the two articles which are cited at the end of this sentence and which are herein incorporated by reference. Kramer et al Invasion of reconstituted basement membrane matrix by metastatic tumor cells. Cancer Res. 46: […]; and Albini et al A Rapid in vitro assay for quantitating the invasive potential of tumor cells. Cancer Res. 3239-3245, 198. Modifications were made to permit evaluation of pharmacologic effectors in this system and to increase screening throughput.
Polyvinylpyrrolidone-free polycarbonate filters (25×80 mm; 8 μm pore size (Nucleopore, Pleasantan, Calif.) were coated with 100 μg human fibronectin (Boehringer-Mannheim Corp., Indianapolis, Ind.) for 1 hour, permitted to air dry 5 to 10 minutes, and then coated overnight with Matrigel (500 μg/filter; Collaborative Research, Bedford, Mass.). Filters were then rehydrated with serum-free DMEM and assembled into 48-microwell chemotaxis chambers (Neuroprobe, Cabin Johbn, Md.). See Blood et al Identification of a tumor cell receptor for VGVAPG, an elastin-derived chemotactic peptide. J. Cell Biol. 107:1987-1994, 1988 which is herein incorporated by reference. Compounds tested were placed in upper wells of the chambers with HT1080 human fibrosarcoma cells (3.5×10^4 cells/well). For primary screens the final concentration of compounds was 45 μg/ml.
Chambers were incubated for 5 hours at 37° C. in a 5% CO2 humidified atmosphere. After incubation chambers were disassembled and the filters were fixed and stained with Diff-Quik reagents (Baxter Scientific, McGaw Park, Ind.). […] The filter was then mounted between 2 glass slides and tumor cells that had invaded the Matrigel barrier in each microwell were quantitated as "% area covered by cells" with a Cue-2 Image Analysis System (Olympus Corp., Lake Success, N.Y.). When assayed under these conditions HT1080 cells (with or without Dimethylsulfoxide (DMSO) as a vehicle control) typically invade such that 34-40% surface is covered by cells and an invasion to this degree is defined as 100% invasion for the purposes of this test. Effects of compounds on the invasion are expressed as % inhibition based on the value obtained with vehicle control.

[2] = tested on: Superoxide generation in human neutrophils; experiment: Neutrophil test: inhibition of superoxide generation in human neutrophils; format: cell-based; conditions: 0.25 h, SO release induced by fMLP (100 nM) or PMA (100 nM), stimulus not stated, 15 minutes at 37° C.
Excerpt: Inhibition of Superoxide Generation in Human Neutrophils
One of the histological changes which occurs in psoriasis is infiltration of neutrophils into epidermis and dermis. Superoxide (SO) generation by neutrophils causes oxidative tissue damage during inflammatory processes. PKC plays an essential role in SO release in neutrophils. Formyl peptides (fMLP), important chemoattractants involved in cell recruitment to local inflammatory sites, promote the release of SO anion. The tumor promoting phorbol ester, phorbol-12 myristate-13-acetate (PMA), also induces SO release.
Neutrophils were prepared from human peripheral blood. SO release was induced by fMLP (100 nM) or PMA (100 nM) and measured as SO dismutase-inhibitable reduction of cytochrome c. Preincubation of the compound tested with 3-5×10^6 cells was for 15 minutes in the presence of cytochalasin B ([…]) before addition of the stimulant, fMLP or PMA. 15 minutes after stimulation at 37° C., the reaction was stopped. The quantity of SO anion release was determined as the difference between the absorbance at 550 nm in the presence and absence of SO dismutase.
Antiinflammatory activity of the compounds of the invention was determined by use of the processes set forth in the following literature which is hereby incorporated by reference. Fischer et al Carcinogenesis 11:[…]; and Gupta et al Soc. Inv. Dermotol 91:5, 486-491, 1988 and Nakadate et al J. Pharmacolo. 38 161-168,(1985); and Viaje et al Cancer Res. 37,1530-1536, 1977.

Mouse skin = experiment: Mouse Skin Assay (TPA-induced blister formation); format: in vivo; conditions: compound in acetone (25 μl), then TPA (12.5 μl); evaluated 18 hours after treatment
Method: Mice were treated first with compounds dissolved in acetone (25 μl), and then 30 seconds with TPA (12.5 μl). Blister formation was evaluated 18 hours after treatment. Each mouse was scored on a scale of 1-4 where 4 equals presence of a complete blister, 3 equals slight reduction in blister formation, 2 equals a 50% reduction in blister formation and 1 equals a complete absence of blisters.

[3] = read-out: IN VITRO INHIBITION OF PKC IC50 (nanomolar) except where otherwise indicated
[4] = read-out: IN VITRO INHIBITION OF PKC IC50 (unit indicated in cell)

Row | IC50 (Protein Kinase C ("PKC"); [3]) [nM] | IC50 [2] [nM] | IC50 (Protein Kinase C ("PKC"); [4]) [nM] | Structure (SMILES) | inhibition at 45 µg/mL [1] [%] | Mouse Skin (active/inactive by visual evaluation of blister formation) (Mouse skin)
1 | 14 | > 10000 | – | O=C1NC(=O)c2c1c1c3ccccc3n3c1c1c2c2ccccc2n1CSC3 [Compound 18] | 18 | –
2 | 90 | – | – | O=C1NC(=O)c2c1c1c3ccccc3n3c1c1c2c2ccccc2n1CN(O)C3 [Compound 3] | 48 | –
3 | 2.4 | – | – | C[C@@H]1n2c3ccccc3c3c4c(c5c6ccccc6n(c5c32)[C@H](C)S1(=O)=O)C(=O)NC4=O [cis-25] | – | –
4 | 480 | – | – | O=C(O)CN1Cn2c3ccccc3c3c4c(c5c6ccccc6n(c5c32)C1)C(=O)NC4=O [Compound 7] | 0 | –
5 | 5 | 900 | – | O=C1NCc2c1c1c3ccccc3n3c1c1c2c2ccccc2n1CS(=O)(=O)C3 [Compound 23] | 57 | active
6 | 90 | – | – | CN1Cn2c3ccccc3c3c4c(c5c6ccccc6n(c5c32)C1)C(=O)NC4 [Compound 13] | 26 | –
7 | – | – | > 5000 | N=C1NC(=O)c2c1c1c3ccccc3n3c1c1c2c2ccccc2n1CN(Cc1ccccc1)C3 [Compound 1] | – | –
8 | ~100 | – | – | COCCOCCOCCN1Cn2c3ccccc3c3c4c(c5c6ccccc6n(c5c32)C1)C(=O)NC4=O [Compound 12] | 20 | –
9 | 160 | – | – | CN(C)CCN1Cn2c3ccccc3c3c4c(c5c6ccccc6n(c5c32)C1)C(=O)NC4=N [Compound 8] | 46 | –
10 | 2 | 1600 | – | O=C1NC(=O)c2c1c1c3ccccc3n3c1c1c2c2ccccc2n1CS(=O)(=O)C3 [Compound 26] | – | inactive
11 | ~500 | – | – | COCCOCCOCCN1Cn2c3ccccc3c3c4c(c5c6ccccc6n(c5c32)C1)C(=O)NC4=N [Compound 11] | 42 | –
12 | 86 | – | – | CN1Cn2c3ccccc3c3c4c(c5c6ccccc6n(c5c32)C1)C(=O)NC4=O [Compound 6] | 66 | –
13 | 120 | – | – | C[C@@H]1n2c3ccccc3c3c4c(c5c6ccccc6n(c5c32)[C@@H](C)S1(=O)=O)C(=O)NC4=O (relative stereo) [trans-25] | – | –
14 | 24 | > 10000 | – | N=C1NC(=O)c2c1c1c3ccccc3n3c1c1c2c2ccccc2n1CSC3 [Compound 17] | 53 | –
15 | 62 | – | – | N=C1NC(=O)c2c1c1c3ccccc3n3c1c1c2c2ccccc2n1COC3 [Compound 15] | 30 | –
16 | 11 | – | – | O=C1NC(=O)c2c1c1c3ccccc3n3c1c1c2c2ccccc2n1COC3 [Compound 16] | 46 | –
17 | 150 | – | – | CN1Cn2c3ccccc3c3c4c(c5c6ccccc6n(c5c32)C1)C(=O)NC4=N [Compound 5] | 46 | –
18 | 120 | – | – | CN(C)CCN1Cn2c3ccccc3c3c4c(c5c6ccccc6n(c5c32)C1)C(=O)NC4=O [Compound 9] | 52 | –
19 | 7 | – | – | O=C1NCc2c1c1c3ccccc3n3c1c1c2c2ccccc2n1CSC3 [Compound 19] | 100 | –
20 | – | – | > 50000 | O=C1NC(=O)c2c1c1c3ccccc3n3c1c1c2c2ccccc2n1CN(Cc1ccccc1)C3 [Compound 2] | 35 | –
21 | 145 | – | – | O=C1NC(=O)c2c1c1c3ccccc3n3c1c1c2c2ccccc2n1CNC3 [Compound 4] | 86 | –
22 | 19 | > 10000 | – | O=C1NC(=O)c2c1c1c3ccccc3n3c1c1c2c2ccccc2n1C[S+]([O-])C3 [Compound 20] | – | –
23 | 17 | – | – | O=C1NC(=O)c2c1c1c3ccccc3n3c1c1c2c2ccccc2n1CN(CCO)C3 [Compound 10] | 72 | –

From US5589472A, “Diindolo compounds and pharmaceutical compositions containing them” (priority 1995, dated 1996)
